The target of one test is T1, mu opioid receptor (Cavia porcellus, UniProt A0ACM8Q262).
T1 construct: full-length wild-type receptor
Put plainly: mu opioid receptor binding: tritiated DAGO in guinea pig brain homogenates. The conditions noted are these: read-out: Opoid Binding Mu Ki; guinea pig brain homogenate, [3H]DAGO, 150 minutes, 0° C.

Test [1] can be described thus: standard rat paw pressure analgesia test. It counts as in vivo. The conditions noted are these: i.v. The text has this:
The ED50 doses for several representative compounds of this invention in the standard rat paw pressure analgesia test are presented in Table 1.

T1 sequence (A0ACM8Q262 1-400): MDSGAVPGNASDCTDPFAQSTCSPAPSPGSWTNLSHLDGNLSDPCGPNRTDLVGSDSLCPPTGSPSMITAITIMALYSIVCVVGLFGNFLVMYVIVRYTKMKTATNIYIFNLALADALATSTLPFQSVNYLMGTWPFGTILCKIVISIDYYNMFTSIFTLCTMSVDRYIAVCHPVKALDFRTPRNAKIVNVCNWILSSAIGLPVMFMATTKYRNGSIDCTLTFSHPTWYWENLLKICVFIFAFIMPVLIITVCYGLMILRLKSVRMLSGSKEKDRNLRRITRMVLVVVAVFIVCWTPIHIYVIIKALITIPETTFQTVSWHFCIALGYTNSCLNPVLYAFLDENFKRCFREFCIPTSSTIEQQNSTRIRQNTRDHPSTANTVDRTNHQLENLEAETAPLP

For the compound `CO[C@H]1C[C@@H](N2CCCC2)[C@H](N(C)C(=O)COc2cc(C)c(Cl)c(C)c2)C[C@H]1OC` (relative stereo) [Compound 3], the inhibition constant (Ki) (in general, a measure of affinity in units of concentration, obtained from inhibition or displacement) at mu opioid receptor is 720 nM. The “Rat Paw Pressure MPE50” value in test [1] is more than 10 mg·kg.

Take `CO[C@H]1C[C@@H](N2CCCC2)[C@H](N(C)C(=O)CC2c3ccccc3-c3ccccc32)C[C@H]1OC` (relative stereo) [Compound 7]: at mu opioid receptor, the Ki is 273 nM.

As for `CO[C@H]1C[C@@H](N2CCCC2)[C@H](N(C)C(=O)Cc2cccc3ccccc23)C[C@H]1OC` (relative stereo) [Compound 5], the “Rat Paw Pressure MPE50” value in test [1] is 1.7 mg·kg. Turning to `CO[C@H]1C[C@@H](N2CCCC2)[C@H](N(C)C(=O)COc2cccc(F)c2)C[C@H]1OC` (relative stereo) [Compound 9, N-[4,5-Dimethoxy-2-(1-pyrrolidinyl)cyclohexyl]-2-(3-fluorophenoxy)-N-methylacetamide], the inhibition constant Ki at mu opioid receptor amounted to 1100 nM. Consider `CO[C@H]1C[C@@H](N2CCCC2)[C@H](N(C)C(=O)COc2cc(C)c(Cl)c(C)c2Cl)C[C@H]1OC` (relative stereo) [Compound 8], for which the Ki at mu opioid receptor amounted to 700 nM. Turning to `CO[C@H]1C[C@@H](N2CCCC2)[C@H](N(C)C(=O)COc2ccc(Cl)c(Cl)c2)C[C@H]1OC` (relative stereo) [Compound 4], the Ki at mu opioid receptor was determined as 1100 nM. Besides, in test [1], the “Rat Paw Pressure MPE50” value was more than 10 mg·kg. `CO[C@H]1C[C@@H](N2CCCC2)[C@H](N(C)C(=O)Cc2ccc(Cl)c(Cl)c2)C[C@H]1OC` (relative stereo) [Compound 6]: the “Rat Paw Pressure MPE50” value in test [1] was found to be 5.2 mg·kg.

The values above are taken from US4855316A (priority 1988, dated 1989).
